Experimental data published in US6777411B1, “Fungicide mixtures based on pyride amides and morpholine derivatives or piperidine derivatives” (priority 1997, dated 2004).

Assays:
[1] = tested on: Erysiphe graminis forma specialis tritici; test: Activity against powdery mildew of wheat; assay type: in vivo; conditions: wheat seedlings "Kanzler", sprayed 24 hours before inoculation, evaluated after 7 days
Description: (§1) Evaluation is carried out by determining the infected leaf areas in percent. These percentages are converted into efficacies. The efficacy (W) is calculated as follows using Abbot's formula: […]
(§2) α corresponds to the fungal infection of the treated plants in % and β corresponds to the fungal infection of the untreated (control) plants in % An efficacy of 0 means that the infection level of the treated plants corresponds to that of the untreated control plants; an efficacy of 100 means that the treated plants were not infected.
(§3) Colby formula: E=x+y−x·y/100
Activity Against Powdery Mildew of Wheat
The test plants were subsequently kept in a greenhouse at 20 to 24° C. and 60 to 90% relative atmospheric humidity. After 7 days, the extent of the mildew development was determined visually in % infection of the total leaf area.

Puccinia recondita = test: Curative activity against Puccinia recondita on wheat (wheat leaf rust); assay type: in vivo; conditions: wheat seedlings "Kanzler", sprayed 1 day after infection, evaluated after 7 days
Description: as §1, §2, §3
Curative Activity Against Puccinia recondita on Wheat (Wheat Leaf Rust) Leaves of potted wheat seedlings of the variety “Kanzler” were dusted with spores of leaf rust (Puccinia recondita). […] During this time, the spores germinated and the germinal tubes penetrated into the leaf tissue. […] After the spray coating had dried on, the test plants were cultivated in a greenhouse at from 20 to 22° C. and from 65 to 70% of relative atmospheric humidity for 7 days. Thereafter, the extent of rust fungus development on the leaves was determined.

| SMILES | Efficacy in % of the untreated control ([1]; 4 ppm in the spray liquor) [%] | Efficacy in % of the untreated control ([1]; 16 ppm in the spray liquor) [%] | Efficacy in % of the untreated control (Puccinia recondita; 16 ppm in the spray liquor) [%] | Efficacy in % of the untreated control (Puccinia recondita; 63 ppm in the spray liquor) [%] | Efficacy in % of the untreated control ([1]; 1 ppm in the spray liquor) [%] |
| --- | --- | --- | --- | --- | --- |
| O=C(Nc1ccccc1-c1ccc(F)cc1)c1cccnc1Cl [Compound I.1] | 0 | 0 | 0 | 0 | – |
| O=C(Nc1ccccc1-c1ccc(Cl)cc1)c1cccnc1Cl [Compound I.2] | 0 | – | 0 | – | 0 |
| CC(Cc1ccc(C(C)(C)C)cc1)CN1C[C@@H](C)O[C@@H](C)C1 (stereo partly shown) [Compound IIa, fenpropimorph] | 20 | – | 20 | – | 0 |
| CC(Cc1ccc(C(C)(C)C)cc1)CN1CCCCC1 (stereo not shown) [Compound IIb, fenpropidin] | 30 | – | 20 | – | 0 |
| CCCCCCCCCCCCCN1CC(C)OC(C)C1 (stereo not shown) [Compound IIc, tridemorph] | 0 | 20 | – | 0 | – |
